# Measured values as given in paper PMC4332533 (Neuropharmacology, 2014).
# Where “and” joins values, the source holds several entries; their conditions need not be identical. Equal values may be shown once. Read-outs that look alike come from different tables or passages of the source.
# Tests used:
# α3E173Cβ2R46C receptor = α3E173Cβ2R46C receptor (Rattus norvegicus, UniProt P04757+P12390, E200C/R46C); test: Disulfide cross-linking experiments; format: cell-based
# α3Y168Cβ2D190C receptor [1] = biological target: T1, α3Y168Cβ2D190C receptor (Rattus norvegicus, UniProt P04757+P12390, D216C/Y195C); test: Disulfide cross-linking experiments; format: cell-based
# α3Q37Cβ2A127C receptor [2] = biological target: T2, α3Q37Cβ2A127C receptor (Rattus norvegicus, UniProt P04757+P12390, A153C/Q64C); test: Disulfide cross-linking experiments; format: cell-based
# α3S125Cβ2Q39C receptor [3] = biological target: T3, α3S125Cβ2Q39C receptor (Rattus norvegicus, UniProt P04757+P12390, Q65C/S152C); test: Disulfide cross-linking experiments; format: cell-based
# wild type α3β2 receptor [4] = biological target: T4, wild type α3β2 receptor (Rattus norvegicus, UniProt P04757+P12390); test: Disulfide cross-linking experiments; format: cell-based; details: 5 min 4.4 mM H2O2 alone; 300 µM ACh ± 10 µM Mor
# α3S125Cβ2 receptor [5] = biological target: T5, α3S125Cβ2 receptor (Rattus norvegicus, UniProt P04757+P12390, S152C); test: Disulfide cross-linking experiments; format: cell-based; details: H2O2 oxidation treatment (Supplemental Fig. S3C)
# α3Y168Fβ2D190Q receptor = α3Y168Fβ2D190Q receptor (Rattus norvegicus, UniProt P04757+P12390, D216Q/Y195F); test: Macroscopic evoked currents, two-electrode voltage-clamp, Xenopus laevis oocytes; format: cell-based; details: mutation-modulator Ɽ from EC50s vs wild type
# α3β2D190C receptor = α3β2D190C receptor (Rattus norvegicus, UniProt P04757+P12390, D216C); test: as above; format: cell-based; details: for potentiation of ACh-evoked currents: 10 µM modulator (Fig. 3B)
# Chain of α3β2D190C receptor (P04757 26-499): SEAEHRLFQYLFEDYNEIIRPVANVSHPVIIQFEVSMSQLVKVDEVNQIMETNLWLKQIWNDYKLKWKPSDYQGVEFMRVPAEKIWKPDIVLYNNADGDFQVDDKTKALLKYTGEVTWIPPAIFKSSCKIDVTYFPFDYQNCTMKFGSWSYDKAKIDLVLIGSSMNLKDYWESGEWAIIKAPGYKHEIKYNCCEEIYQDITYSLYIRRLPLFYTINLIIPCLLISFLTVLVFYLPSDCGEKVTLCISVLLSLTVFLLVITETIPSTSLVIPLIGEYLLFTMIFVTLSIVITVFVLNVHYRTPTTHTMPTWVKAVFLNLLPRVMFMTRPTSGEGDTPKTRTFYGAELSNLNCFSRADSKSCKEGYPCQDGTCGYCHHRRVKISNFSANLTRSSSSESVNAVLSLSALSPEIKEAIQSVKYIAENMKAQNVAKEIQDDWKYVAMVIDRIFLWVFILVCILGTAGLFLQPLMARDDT
# Chain of α3β2D190C receptor (P12390 25-500 D216C): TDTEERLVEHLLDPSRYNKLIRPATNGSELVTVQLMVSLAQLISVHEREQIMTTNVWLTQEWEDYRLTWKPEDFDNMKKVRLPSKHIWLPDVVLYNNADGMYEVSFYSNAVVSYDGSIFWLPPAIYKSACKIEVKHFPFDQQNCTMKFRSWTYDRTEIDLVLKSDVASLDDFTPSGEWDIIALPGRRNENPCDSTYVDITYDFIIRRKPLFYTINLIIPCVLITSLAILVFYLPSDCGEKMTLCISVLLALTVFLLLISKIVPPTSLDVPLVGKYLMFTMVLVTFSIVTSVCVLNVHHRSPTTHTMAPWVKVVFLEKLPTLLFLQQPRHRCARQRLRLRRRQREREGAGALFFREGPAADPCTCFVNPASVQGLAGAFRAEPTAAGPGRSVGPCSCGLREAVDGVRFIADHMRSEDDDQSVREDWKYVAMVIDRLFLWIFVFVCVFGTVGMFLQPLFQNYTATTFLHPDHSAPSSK
# α3β2A127Y receptor = α3β2A127Y receptor (Rattus norvegicus, UniProt P04757+P12390, A153Y); test: as above; format: cell-based
# Chain of α3β2A127Y receptor (P04757 26-499): as the sequence (P04757 26-499) above
# Chain of α3β2A127Y receptor (P12390 25-500 A153Y): as the sequence (P12390 25-500 D216C) above, with A129Y, C192D counted along it
# α3β2Q39C receptor = α3β2Q39C receptor (Rattus norvegicus, UniProt P04757+P12390, Q65C); test: as above; format: cell-based; details: mutation-modulator Ɽ from EC50s vs wild type; 10 µM Mor
# α3β2R46V receptor = α3β2R46V receptor (Rattus norvegicus, UniProt P04757+P12390, R72V); test: as above; format: cell-based; details: Mor alone; relative to saturating ACh; no Hill fit possible
# wild type α3β2 receptor [6] = biological target: T4, wild type α3β2 receptor; test: as above; format: cell-based; details: 10 µM Mor; 300 µM ACh; control measurement before oxidation (Fig. 2)
# α3S125Yβ2W149A receptor = α3S125Yβ2W149A receptor (Rattus norvegicus, UniProt P04757+P12390, S152Y/W175A); test: as above; format: cell-based
# Chain of α3S125Yβ2W149A receptor (P04757 26-499 S152Y): as the sequence (P04757 26-499) above, with S127Y counted along it
# Chain of α3S125Yβ2W149A receptor (P12390 25-500 W175A): as the sequence (P12390 25-500 D216C) above, with W151A, C192D counted along it
# α3E173Aβ2R46V receptor = α3E173Aβ2R46V receptor (Rattus norvegicus, UniProt P04757+P12390, E200A/R46V); test: as above; format: cell-based; details: mutation-modulator Ɽ from EC50s vs wild type; 10 µM Mor
# α3Y168Cβ2D190C receptor [7] = biological target: T1, α3Y168Cβ2D190C receptor; test: as above; format: cell-based
# α3Q37Cβ2A127C receptor [8] = biological target: T2, α3Q37Cβ2A127C receptor; test: as above; format: cell-based; details: mutation-modulator Ɽ from EC50s vs wild type; 10 µM Mor
# α3S125Yβ2A127Y receptor = α3S125Yβ2A127Y receptor (Rattus norvegicus, UniProt P04757+P12390, A153Y/S152Y); test: as above; format: cell-based
# Chain of α3S125Yβ2A127Y receptor (P04757 26-499 S152Y): as the sequence (P04757 26-499) above, with S127Y counted along it
# Chain of α3S125Yβ2A127Y receptor (P12390 25-500 A153Y): as the sequence (P12390 25-500 D216C) above, with A129Y, C192D counted along it
# α3β2D190Q receptor = α3β2D190Q receptor (Rattus norvegicus, UniProt P04757+P12390, D216Q); test: as above; format: cell-based; details: mutation-modulator Ɽ from EC50s vs wild type
# α3Y168Fβ2 receptor = α3Y168Fβ2 receptor (Rattus norvegicus, UniProt P04757+P12390, Y195F); test: as above; format: cell-based
# α3β2W149A receptor = details: Mor alone; relative to saturating ACh; no Hill fit possible; cited from earlier work
# α3Q37Cβ2 receptor = α3Q37Cβ2 receptor (Rattus norvegicus, UniProt P04757+P12390, Q64C); test: Macroscopic evoked currents, two-electrode voltage-clamp, Xenopus laevis oocytes; format: cell-based; details: mutation-modulator Ɽ from EC50s vs wild type; 10 µM Mor
# α3S125Cβ2Q39C receptor [9] = biological target: T3, α3S125Cβ2Q39C receptor; test: as above
# wild type α3β2 receptor [10] = biological target: T4, wild type α3β2 receptor; details: Mor alone, cited from earlier work
# α3β2A127C receptor = α3β2A127C receptor (Rattus norvegicus, UniProt P04757+P12390, A153C); test: Macroscopic evoked currents, two-electrode voltage-clamp, Xenopus laevis oocytes; format: cell-based; details: mutation-modulator Ɽ from EC50s vs wild type; 10 µM Mor
# α3S125Cβ2 receptor [11] = biological target: T5, α3S125Cβ2 receptor; test: as above; format: cell-based
# α3S125Yβ2 receptor = α3S125Yβ2 receptor (Rattus norvegicus, UniProt P04757+P12390, S152Y); test: as above
# Chain of α3S125Yβ2 receptor (P04757 26-499 S152Y): as the sequence (P04757 26-499) above, with S127Y counted along it
# Chain of α3S125Yβ2 receptor (P12390 25-500, stated change not applied): as the sequence (P12390 25-500 D216C) above, with C192D counted along it
# α3E173Aβ2 receptor = α3E173Aβ2 receptor (Rattus norvegicus, UniProt P04757+P12390, E200A); test: as above; format: cell-based
# α3Y168Cβ2 receptor = α3Y168Cβ2 receptor (Rattus norvegicus, UniProt P04757+P12390, Y195C); test: as above; format: cell-based; details: mutation-modulator Ɽ from EC50s vs wild type; 10 µM Oxa
# [12] = mutation-modulator Ɽ from EC50s vs wild type, 10 µM Mor
# [13] = 10 µM Mor, saturating nicotine, 10 µM epibatidine (Fig. 8)
# [14] = Mor alone, relative to saturating ACh
# [15] = mutation-modulator Ɽ from EC50s vs wild type, 10 µM Oxa
smiles,measurement,setting,value
"O[C@@H](CS)[C@@H](O)CS (racemic) [DTT, dithiothreitol]",change of currents upon reduction following oxidation,α3E173Cβ2R46C receptor; DTT after H2O2 (Supplemental Fig. S4),"did decrease currents, but not completely to the control level"
same,reversal of oxidation-induced current decrease by reduction,α3Y168Cβ2D190C receptor [1]; subsequent DTT treatment (Supplemental Fig. S2B),completely reversed
same,reduction of the disulfide bond after oxidation,α3Q37Cβ2A127C receptor [2]; 40 µM DTT after oxidation (Fig. 7),essentially resistant
same,reduction of the disulfide bond after oxidation,α3S125Cβ2Q39C receptor [3]; 40–100 µM DTT after H2O2 (Fig. 6),effective resistance
OO [H2O2],change of currents upon oxidation,α3E173Cβ2R46C receptor; H2O2 alone (Supplemental Fig. S4),significantly increased currents
same,reduction of evoked currents following oxidation,α3Y168Cβ2D190C receptor [1]; H2O2 treatment (abstract),up to 50%
same,"Ioxidation/Icontrol, final fraction of current remaining at long times",α3Y168Cβ2D190C receptor [1]; oxidation onset kinetics (Supplemental Fig. S2A),0.61 ± 0.05
same,"change of currents evoked by ACh alone, ACh + Mor and Mor alone upon oxidation","α3Q37Cβ2A127C receptor [2]; 4.4 mM H2O2 alone or with 100 µM ACh + 10 µM Mor, 1 mM ACh, 10 µM Mor (Fig. 7)",all increased
same,"decrease of currents evoked by ACh, ACh + Mor and Mor alone upon oxidation","α3S125Cβ2Q39C receptor [3]; 4.4 mM H2O2 alone, 300 µM ACh, 300 µM ACh + 10 µM Mor, 10 µM Mor (Fig. 6)",62–89%
same,decrease of IACh upon oxidation,"α3S125Cβ2Q39C receptor [3]; 5 min 4.4 mM H2O2 alone, current evoked by 300 µM ACh",60%
same,decrease of IACh+Mor upon oxidation,"α3S125Cβ2Q39C receptor [3]; 5 min 4.4 mM H2O2 alone, current evoked by 300 µM ACh + 10 µM Mor",80% and 90%
same,effect of oxidizing treatment on evoked currents,wild type α3β2 receptor [4],unaffected
same,change in evoked currents upon oxidation,α3S125Cβ2 receptor [5],no changes
"Cc1ccsc1C=CC1=NCCCN1C.O=C(O)C(O)C(O)C(=O)O [Mor, 1,4,5,6-tetrahydro-1-methyl-2-(2-[3-methyl-2-thienyl]ethenyl)pyrimidine, tartrate salt]",R(mut-Mor),α3Y168Fβ2D190Q receptor; 10 µM Mor,0.57
same,potentiation of ACh-evoked currents,α3β2D190C receptor,eliminated
same,R(mut-Mor),α3β2D190C receptor; [12],10
same,EC50,α3β2A127Y receptor,4.8 ± 2.4 µM
same,response to Mor alone,α3β2A127Y receptor; 10 µM Mor alone (Fig. 8),nearly negligible current
same,effect on ACh responses,"α3β2A127Y receptor; 10 µM Mor, 300 µM ACh (Fig. 8)",modestly potentiated
same,effect on responses evoked by nicotine and epibatidine,α3β2A127Y receptor; [13],inhibited
same,nH (Mor Activation),"α3β2A127Y receptor; Mor alone, Hill fit",1.08 ± 0.40
same,Emax (Mor Activation),α3β2A127Y receptor; [14],0.05 ± 0.01 [5]
same,R(mut-Mor),α3β2A127Y receptor; [12],9.4
same,R(mut-Mor),α3β2Q39C receptor,0.10
same,Emax (Mor Activation),α3β2R46V receptor,0.03 ± 0.01 [7]
same,potentiation (IACh+Mor/IACh),wild type α3β2 receptor [6],greater than 2.5 fold
same,EC50,α3S125Yβ2W149A receptor,25 ± 9 µM
same,nH (Mor Activation),"α3S125Yβ2W149A receptor; Mor alone, Hill fit",1.01 ± 0.29 [5–6]
same,Emax (Mor Activation),α3S125Yβ2W149A receptor; [14],0.21 ± 0.02
same,R(mut-Mor),α3S125Yβ2W149A receptor; [12],7.2
same,R(mut-Mor),α3E173Aβ2R46V receptor,9.0
same,potentiation (IACh+Mor/IACh),"α3Y168Cβ2D190C receptor [7]; 10 µM Mor, 1 mM ACh, control measurement before oxidation (Fig. 2)",greater than 2.5 fold
same,R(mut-Mor),"α3Y168Cβ2D190C receptor [7]; Ɽ=EC50(WT,A)·EC50(mut,A+M)/EC50(WT,A+M)·EC50(mut,A), M = 10 µM Mor",0.52
same,R(mut-Mor),α3Q37Cβ2A127C receptor [8],1.7
same,EC50,α3S125Yβ2A127Y receptor,1.9 ± 0.2 µM
same,effect on ACh responses,"α3S125Yβ2A127Y receptor; 10 µM Mor, 300 µM ACh (Fig. 8)",modestly potentiated
same,effect on responses evoked by nicotine and epibatidine,α3S125Yβ2A127Y receptor; [13],inhibited
same,nH (Mor Activation),"α3S125Yβ2A127Y receptor; Mor alone, Hill fit",3.18 ± 0.63
same,Emax (Mor Activation),α3S125Yβ2A127Y receptor; [14],0.16 ± 0.01 [3]
same,R(mut-Mor),α3S125Yβ2A127Y receptor; [12],1.2
same,Ω (Mor alone activation),α3S125Yβ2A127Y receptor; thermodynamic cycle α3S125Y-β2A127Y from Mor alone EC50s,3.4
same,R(mut-Mor),α3β2D190Q receptor; 10 µM Mor,7.1
same,decrease in EC50 for Mor modulation vs wild type,"α3Y168Fβ2 receptor; ACh + 10 µM Mor EC50 comparison, Table 1",70 fold
same,Emax (Mor Activation),α3β2W149A receptor,0.015 ± 0.004 [3]
same,R(mut-Mor),α3Q37Cβ2 receptor,5.3
same,EC50,α3S125Cβ2Q39C receptor [9],0.53 ± 0.21 µM
same,potentiation (IACh+Mor/IACh),"α3S125Cβ2Q39C receptor [9]; 10 µM Mor, 300 µM ACh, control measurement before oxidation (Fig. 2)",greater than 2.5 fold
same,nH (Mor Activation),"α3S125Cβ2Q39C receptor [9]; Mor alone, Hill fit",0.92 ± 0.30 [4–8]
same,Emax (Mor Activation),α3S125Cβ2Q39C receptor [9]; [14],1.00 ± 0.14
same,R(mut-Mor),α3S125Cβ2Q39C receptor [9]; [12],4.5
same,nH (Mor Activation),wild type α3β2 receptor [10]; Hill fit,3.1 ± 1.6
same,Emax (Mor Activation),wild type α3β2 receptor [10]; relative to saturating ACh,0.2 and 0.20 ± 0.04
same,EC50,"wild type α3β2 receptor [10]; read-out: EC50 (Mor Activation), Hill fit",20 ± 2 µM
same,R(mut-Mor),α3β2A127C receptor,3.3
same,EC50,α3S125Cβ2 receptor [11],92 ± 33 µM
same,nH (Mor Activation),"α3S125Cβ2 receptor [11]; Mor alone, Hill fit",0.54 ± 0.11 [4]
same,Emax (Mor Activation),α3S125Cβ2 receptor [11]; [14],0.028 ± 0.006
same,R(mut-Mor),α3S125Cβ2 receptor [11]; [12],1.3
same,EC50,α3S125Yβ2 receptor,2.3 ± 0.7 µM
same,response to Mor alone,"α3S125Yβ2 receptor; 10 µM Mor alone (Fig. 8, Fig. 5A)",full agonist
same,effect on ACh responses,"α3S125Yβ2 receptor; 10 µM Mor, 300 µM ACh (Fig. 8)",modestly potentiated
same,effect on responses evoked by nicotine and epibatidine,α3S125Yβ2 receptor; [13],inhibited
same,decrease in EC50 for Mor modulation vs wild type,α3S125Yβ2 receptor; ACh + 10 µM Mor EC50 comparison,1000 fold
same,Emax (Mor Activation),α3S125Yβ2 receptor; [14],1.7 and 1.69 ± 0.27
same,R(mut-Mor),α3S125Yβ2 receptor; [12],0.0076
same,Emax (Mor Activation),"α3E173Aβ2 receptor; Mor alone, relative to saturating ACh, no Hill fit possible",0.16 ± 0.01 [4]
same,R(mut-Mor),α3E173Aβ2 receptor; [12],1.4
"CN1CCCN=C1/C=C/c1cccc(O)c1 [Oxa, 1-methyl-2-(3-hydroxyphenylethenyl)-1,4,5,6-tetrahydropyrimidine with 4,4’-methylenebis(3-hydroxy-2-naphthoic acid)]",R(mut-Oxa),α3Y168Fβ2D190Q receptor; 10 µM Oxa,1.6
same,R(mut-Oxa),α3Y168Cβ2 receptor,1.2
same,potentiation of ACh-evoked currents,α3β2D190C receptor,eliminated
same,R(mut-Oxa),α3β2D190C receptor; [15],19
same,R(mut-Oxa),α3Y168Cβ2D190C receptor [7]; [15],1.9
same,R(mut-Oxa),α3β2D190Q receptor; 10 µM Oxa,19
same,R(mut-Oxa),α3Y168Fβ2 receptor; [15],1.5
Clc1ccc(C2CC3CCC2N3)cn1 (stereo not shown) [epibatidine],efficacy compared with ACh,α3S125Yβ2 receptor; saturating agonist (Fig. 8),greater efficacy
CN1CCC[C@H]1c1cccnc1 [nicotine],efficacy compared with ACh,α3S125Yβ2 receptor,greater efficacy
